# From patent publication US20030220521A1, “Renal-selective prodrugs for control of renal sympathetic nerve activity in the treatment of hypertension” (G.D. Searle & Co., priority 1989, published 2003)
# Where a name gives a salt, the structure may show the parent alone.
# Columns and labels:
# conscious SHR = assay: Assay XIII: antihypertensive experiments in conscious SHR (renal denervation, bulbocapnine); format: in vivo, rat; conditions: bulbocapnine alone
# Procedure: For antihypertensive experiments, male SHR (11-13 weeks of age; Harlan Sprague-Dawley, Inc.; Indianapolis, Ind.) were habituated for 3-4 days in individual experimental cages, which became their home cages for the duration of the study. Five to seven days before experimentation, SHR were anesthetized with chloral hydrate (400 mg/kg; Sigma Chemical Co., St. Louis, Mo.) and catheters were implanted into a femoral artery and vein. The catheters were led to the back of the neck, exteriorized, and channeled through a tether and swivel system (Alice King Chatham, Los Angeles, Calif.). Surgical renal denervation was performed as above. […] In separate groups of conscious SHR, Ex. #859 (5 mg/kg/hr, n=6) was infused alone, Ex. #859 (5 mg/kg/hr, n=6) was coinfused with bulbocapnine (100 μg/kg/min), or Ex. #859 (10 mg/kg/hr, n=6) was infused 5-7 days after surgical renal denervation. Surgical renal denervation was performed as described above. After a one hour control measure of mean arterial pressure, compounds were infused for four hours and mean arterial pressure was measured continuously.
# [1] = tested on: spontaneously hypertensive rats; assay: Assay II: chronic i.v. infusion, mean arterial pressure in spontaneously hypertensive rats (Ex. #3); format: in vivo, rat; conditions: SHR, continuous infusion 5 mg/hr
# Procedure: (§1) The Ex. #3 conjugate and saline vehicle were infused continuously for four days in spontaneously hypertensive rats. Mean arterial pressure was measured (Gould Chart Recorder, model 3800; Statham P23Db pressure transducer) via an indwelling femoral artery catheter between 10:00 a.m. and 2:00 p.m. each day. The Ex. #3 conjugate was infused at 5 mg/hr and the saline vehicle was infused at 300 μL,/hr. via a jugular vein catheter with a Harvard infusion pump.
# Sprague-Dawley rats = assay: Assay I: acute in vivo effects on mean arterial pressure and renal blood flow, anesthetized rats; design: species or system rat; conditions: for MAP / RBF: 100 mg/kg i.v.
# Procedure: Sprague-Dawley rats were anesthetized with inactin (100 mg/kg, i.p.) and catheters were implanted into a carotid artery for measurement of mean arterial pressure (Gould model 3800 chart recorder; Statham pressure transducer model no. P23DB) and into a jugular vein for compound administrations (i.v.). In addition, a flow probe was implanted around the left renal artery for measurement of renal blood flow using Carolina Medical Electronics flow probes. Rats were allowed 60 min to stabilize before 10 minutes of control recordings of mean arterial pressure and renal blood flow were obtained. Control measurements were followed by intravenous injection of Ex. #3 conjugate and saline vehicle.
# [2] = tested on: spontaneously hypertensive rats; assay: Assay III: chronic i.v. infusion, mean arterial pressure in spontaneously hypertensive rats (Ex. #464); format: in vivo, rat; conditions: SHR; for MAP: continuous infusion 10 mg/hr
# Procedure: as §1, with “#464” for “#3”, “10” for “5”, “μL/hr.” for “μL,/hr. via a jugular vein catheter with a Harvard infusion pump.”
# [3] = molecular target: T1, dopamine beta-hydroxylase (DBH; EC 1.14.17.1) (Bos taurus, UniProt P15101); assay: Assay V: in vitro DBH inhibition (norepinephrine production, HPLC); format: biochemical, bovine; conditions: for inhibition at 20 µM: test compound 20 μM, read-out: % Inhibition of DBH
# T1 construct: DBH, purified from bovine adrenals (Sigma); purchased Sigma; host or cells: bovine adrenals (tissue-purified)
# T1 sequence (P15101 1-610): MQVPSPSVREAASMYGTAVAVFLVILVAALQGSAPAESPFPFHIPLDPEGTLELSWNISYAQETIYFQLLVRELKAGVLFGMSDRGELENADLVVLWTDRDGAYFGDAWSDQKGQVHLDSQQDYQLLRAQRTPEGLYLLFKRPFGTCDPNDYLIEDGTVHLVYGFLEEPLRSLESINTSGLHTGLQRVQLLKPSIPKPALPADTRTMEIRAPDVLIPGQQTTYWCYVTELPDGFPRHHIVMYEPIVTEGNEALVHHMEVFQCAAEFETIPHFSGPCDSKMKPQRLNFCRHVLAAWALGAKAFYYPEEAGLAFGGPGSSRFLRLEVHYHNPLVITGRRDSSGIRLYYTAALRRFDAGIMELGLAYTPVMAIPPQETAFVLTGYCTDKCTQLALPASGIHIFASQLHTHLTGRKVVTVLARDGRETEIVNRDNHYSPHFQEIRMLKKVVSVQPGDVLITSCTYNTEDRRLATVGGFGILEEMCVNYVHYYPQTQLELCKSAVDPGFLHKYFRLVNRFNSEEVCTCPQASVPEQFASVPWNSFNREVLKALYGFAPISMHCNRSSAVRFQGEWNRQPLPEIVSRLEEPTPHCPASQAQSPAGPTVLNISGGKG
# Procedure: In order to characterize the relative potency of the Ex. #859 conjugate and its various potential metabolites as inhibitors of dopamine beta-hydroxylase (DBH; EC 1.14.17.1), the enzyme activity was determined in vitro in the presence of these compounds. DBH, purified from bovine adrenals (Sigma) was incubated at 37° C. in buffer containing 20 mM dopamine as substrate. The reaction was stopped by addition of 0.5 M perchloric acid. The precipitate was removed and the product of the enzyme activity (norepinephrine), contained in the clear supernatant, was analyzed by HPLC. The chromatographic separation used a reversed phase C-18 column run isocratically with 0.2 M ammonium acetate (pH 5.2) as the mobile phase. The amount of norepinephrine produced by the enzyme-substrate mixture was analyzed by measuring the peak intensity (absorbance) at 280 nm for norepinephrine as it was eluted at 4.5 minutes, using a photo-diode array detector. The result of adding either fusaric acid or the Ex. #859 conjugate to the incubate at various concentrations is shown in Table XXIII and FIG. 6. […] Fusaric acid and Ex. #859 and two more possible metabolites (Ex #858 and fusaric acid hydrazide) were tested at 20 uM.
# [4] = tested on: spontaneously hypertensive rats; assay: Assay IX: chronic 4 day i.v. infusion of Ex. #861 and #863, mean arterial pressure in SHR; format: in vivo, rat; conditions: for Blood Pressure (mean arterial pressure): 5 mg/hr i.v. infusion; for chronic effect on mean arterial pressure: SHR, 4 day infusion at 5 mg/hr
# Procedure: The conjugates of Ex. #861 and #863 and saline vehicle were infused continuously for 4 days in spontaneously hypertensive rats. Mean arterial pressure was measured (Gould Chart Recorder, model 3800; Statham P23Db pressure transducer) via an indwelling femoral artery catheter between 10:00 a.m. and 2:00 p.m. each day. The Ex. #861 and Ex. #863 conjugates were infused at 5 mg/hr and the saline vehicle was infused at 100 μl/hr via a jugular vein catheter with a Harvard infusion pump. […] It is believed that at a higher dose of the Ex. #861 conjugate, blood pressure lowering effects would be observed.
# [5] = tested on: spontaneously hypertensive rats; assay: Assay VI: acute in vivo effects on mean arterial pressure and renal blood flow in anesthetized SHR (i.v. or i.d.); design: species or system rat; conditions: for MAP / RBF: 100 mg/kg i.v.
# Procedure: Spontaneously hypertensive rats were anesthetized with inactin (100 mg/kg, i.p.) and catheters were implanted into a carotid artery for measurement of mean arterial pressure (Gould model 3800 chart recorder; Statham pressure transducer model no. P23DB) and into a jugular vein for compound administrations (i.v. or i.d.). In addition, a flow probe was implanted around the left renal artery for measurement of renal blood flow using pulsed Doppler flowmetry. Rats were allowed 60 min to stabilize before 10 minutes of control recordings of mean arterial pressure and renal blood flow were obtained. Control measurements were followed by intravenous injection of 50 mg/kg of fusaric acid or the Ex. #859 conjugate. […] The Ex. #859 conjugate had no effect on mean arterial pressure at a dose of 100 mg/kg (n=4) during a 60 minute observation period. Renal blood flow (n=4) was unchanged 15 minutes after injection of the Ex. #859 conjugate but increased from 1.1 KHz (control period) to 3.5 KHz at 30 minutes postinjection.
# [6] = tested on: Spontaneously Hypertensive Rats (SHR); assay: Assay VII: acute effects on arterial pressure in anesthetized SHR; format: in vivo, rat; conditions: i.v.: fusaric acid and fusaric acid hydrazide 100 mg/kg, Ex. #859 250 mg/kg
# Procedure: Mean arterial pressure effects of fusaric acid hydrazide (100 mg/kg, i.v.), fusaric acid (100 mg/kg, i.v.) and Ex. #859 conjugate (250 mg/kg, i.v.) are shown in Table XXVII during a vehicle control period and 60 min post-injection of compound in anesthetized SHR. Rats were prepared as described above, minus the renal artery flow probe.
# [7] = anesthetized SHR, Ex. #863 (Table XXVI)
compound,measurement,setting,value
"CCCCc1ccc(C(=O)NCCNC(=O)CCC(NC(C)=O)C(=O)O)nc1 (as salt: salt) [Ex. #861, N^2-acetyl-N-[2-[[(5-butyl-2-pyridinyl)carbonyl]amino]ethyl]-L-glutamine]",melting point,,156 to 158 °C
"COc1ccc2c(c1O)-c1c3c(cc4c1[C@H](C2)N(C)CC4)OCO3 [Bulbocapnine, bulbocapnine, reference compound]",Mean arterial pressure,conscious SHR; 0 hours,160 ± 6
same,Mean arterial pressure,conscious SHR; 1 hour,156 ± 7
same,Mean arterial pressure,conscious SHR; 2 hours,161 ± 11
same,Mean arterial pressure,conscious SHR; 3 hours,159 ± 6
same,Mean arterial pressure,conscious SHR; 4 hours,157 ± 7
same,effect on mean arterial pressure over the four hour period,conscious SHR; conscious SHR,no effect
"CC(=O)NC(CCC(=O)N[C@@](C)(Cc1ccc(O)cc1)C(=O)O)C(=O)O (stereo partly drawn) [Ex. #3, N-[4-(acetylamino)-4-carboxy-1-oxobutyl]-α-methyl-L-tyrosine]",MAP,[1]; day 1,175 ± 5 mm Hg
same,MAP,[1]; day 2,174 ± 5 mm Hg
same,MAP,[1]; day 3,172 ± 2 mm Hg
same,MAP,[1]; day Zero,164 ± 3 mm Hg
same,MAP,Sprague-Dawley rats; 15 min after injection,77 ± 5 mm Hg
same,RBF,Sprague-Dawley rats; 15 min after injection,7.1 ± 0.1 mL/min
same,MAP,Sprague-Dawley rats; 30 min after injection,73 ± 4 mm Hg
same,RBF,Sprague-Dawley rats; 30 min after injection,6.2 ± 0.3 mL/min
same,MAP,Sprague-Dawley rats; 45 min after injection,70 ± 2 mm Hg
same,RBF,Sprague-Dawley rats; 45 min after injection,5.9 ± 0.1 mL/min
same,MAP,Sprague-Dawley rats; 60 min after injection,71 ± 6 mm Hg
same,RBF,Sprague-Dawley rats; 60 min after injection,5.9 ± 0.1 mL/min
same,MAP,Sprague-Dawley rats; time after injection Zero min,76 ± 5 mm Hg
same,RBF,Sprague-Dawley rats; time after injection Zero min,4.8 ± 0.8 mL/min
same,acute effect on mean arterial pressure (MAP),Sprague-Dawley rats; i.v. injection,no acute effects
same,acute effect on renal blood flow (RBF),Sprague-Dawley rats; i.v. injection,increased renal blood flow
"CC(=O)NC(CCC(=O)N[C@@](C)(Cc1ccc(O)c(O)c1)C(=O)O)C(=O)O (stereo partly drawn) [Ex. #464, N-[4-(acetylamino)-4-carboxy-1-oxobutyl]-3-hydroxy-α-methyl-L-tyrosine]",MAP,[2]; day 1,169 ± 5 mm Hg
same,MAP,[2]; day 2,161 ± 4 mm Hg
same,MAP,[2]; day 3,163 ± 5 mm Hg
same,MAP,[2]; day 4,159 ± 8 mm Hg
same,MAP,[2]; day Zero,179 ± 6 mm Hg
same,effect on mean arterial pressure over the four-day period,[2]; infusion 10 mg/hr,lowered significantly
"CCCCc1ccc(C(=O)NNC(=O)CCC(N)C(=O)O)nc1 [Ex. #858, L-glutamic acid, 5-{[(5-butyl-2-pyridinyl)carbonyl]hydrazide}]",inhibition at 20 µM,[3],0%
"CCCCc1ccc(C(=O)NCCNC(=O)CCC(NC(C)=O)C(=O)O)nc1 [Ex. #861, N^2-acetyl-N-[2-[[(5-butyl-2-pyridinyl)carbonyl]amino]ethyl]-L-glutamine]",Blood Pressure (mean arterial pressure),[4]; day 1,173 ± 3
same,Blood Pressure (mean arterial pressure),[4]; day 2,172 ± 4
same,Blood Pressure (mean arterial pressure),[4]; day 3,172 ± 3
same,Blood Pressure (mean arterial pressure),[4]; day 4,163 ± 9
same,Blood Pressure (mean arterial pressure),[4]; day zero,177 ± 3
same,chronic effect on mean arterial pressure,[4],did not change
"CCCCc1ccc(C(=O)N2CCN(C(=O)CCC(NC(C)=O)C(=O)O)CC2)nc1 (stereo not shown) [Ex. #863, 2-(acetylamino)-5-(4-[(5-butyl-2-pyridinyl)carbonyl]-1-piperazinyl]-5-oxopentanoic acid]",MAP,[5]; 60 min,147 ± 14 mm Hg
same,RBF,[5]; 60 min,4.3 ± 0.3 KHz
same,MAP,[5]; time zero,149 ± 14 mm Hg
same,RBF,[5]; time zero,1.6 ± 0.2 KHz
same,effect on mean arterial pressure,[5]; [7],no effect
same,effect on renal blood flow,[5]; [7],increased renal blood flow
same,Blood Pressure (mean arterial pressure),[4]; day 1,152 ± 6
same,Blood Pressure (mean arterial pressure),[4]; day 2,146 ± 7
same,Blood Pressure (mean arterial pressure),[4]; day 3,142 ± 7
same,Blood Pressure (mean arterial pressure),[4]; day 4,154 ± 7
same,Blood Pressure (mean arterial pressure),[4]; day zero,177 ± 5
same,chronic effect on mean arterial pressure,[4],lowered mean arterial pressure
"CCCCc1ccc(C(=O)NN)nc1 [Fusaric Acid Hydrazide, 5-n-butylpicolinic acid hydrazide]",Mean arterial pressure,[6]; 60 MIN post-injection,104 ± 13 mmHg
same,Mean arterial pressure,[6]; ZERO (vehicle control period),159 ± 8 mmHg
same,inhibition at 20 µM,[3],13.8%
same,inhibitory effect on dopamine-β-hydroxylase activity,[3]; tested at 20 uM,Only fusaric acid had significant inhibitory effects
